Where a name gives a salt, the structure may show the parent alone.
Legend:
Acute toxicity in mouse = conditions: in vivo, 7 days
Description: (§1) (6) Acute toxicity in mouse and rat
(§2) Each ten male and female ICR-JCL strain mice and Sprague-Dawley-JCL strain rats were used for each dose.
(§3) Each test compound was given to animals in a form of suspension in 0.5% methyl cellose intraperitoneally, subcutaneously and orally. After administration, the incidence of the death was recorded for successive seven days. LD50 values were calculated by the method of Litchfield-Wilcoxon method.

anaphylactic asthma = test: Antagonism to anaphylactic asthma in guinea-pigs; assay type: in vivo, guinea-pig (male Hartley); conditions: for Inhibitory effect of anaphylactic asthma in guinea-pig: survival more than 2 hours after antigen spray
[1] = system: Bradykinin-induced bronchoconstruction; test: Antagonism to Bradykinin-induced bronchoconstruction in guinea-pigs; assay type: in vivo, guinea-pig (male Hartley); conditions: for Inhibitory effect of Bradykinin-induced bronchoconstruction in guinea-pig: 30 seconds before Bradykinin; for ED50: Cavia porcellus, iv, 30 seconds before Bradykinin 16 mg/kg i.v., Litchfield-Wilcoxon
Description: (5) Antagonism to Bradykinin-induced bronchoconstruction in guinea-pigs
Ten male Hartley strain guinea-pigs were used for each dose. The animals were immobilized with an intraperitoneal dose of 100 mg/kg of gallamine. The trachea was cannulated and the lungs were dilated with air by a respiration pump at the rate of 3 ml/time and 60.2 times/minute. Bradykinin 16 mg/kg was given intravenously and bronchoconstruction induced thereby was measured by Tanbule Strain gauge according to Konzett-Rossler method. The inhibitory effect against bronchoconstruction was determined in comparison with the control group and the treated group, and the ED50 value was measured according to Litchfield-Wilcoxon method. Each test compound was given intravenously 30 seconds before administration of the Bradykinin.

Acute toxicity in rat = conditions: in vivo, 7 days
Description: as §1, §2, §3

[2] = system: passive cutaneous anaphylaxis (P.C.A.) reaction; test: Antagonism to passive cutaneous anaphylaxis (P.C.A.) in guinea-pig; assay type: in vivo, guinea-pig (male Hartley); conditions: for ED50: Cavia porcellus
Description: (b) Guinea-pig antiserum against egg albumin
Five mg of egg albumin emulsified in 0.5 ml of physiological saline and 0.5 ml of Freund's incomplete adjuvant was used as the antigen.
The amulsion was given subcutaneously in a single dose of 1 ml divided equally (0.25 ml) to the four foot pads of male Hartley strain guinea pigs, each weighing 250 to 300 g. Starting two weeks after dosing with the aforementioned emulsion, 0.1% egg albumin emulsified in physiological saline was given subcutaneously in equally divided (0.1 ml) doses of 0.4 ml once a week for 4 weeks to four sites on the backs of the test animals. Blood samples were collected from the carotid artery one week after the last injection, and centrifuged at 3000 r.p.m. at room temperature for 15 minutes. The antisera thus obtained were stored at -20° C.
(3) Antagonism to passive cutaneous anaphylaxis (P.C.A) in guinea-pig
Ten male Hartley strain guinea-pigs, weighing 300-350 g, were used for each dose. The animals were sensitized with 0.1 ml of the guinea-pig antiserum against egg albumin injected intracutaneously on the depilated backs of the animals. Four hours after injection of the antiserum, 1 ml of mixture of egg albumin […] and Evan's blue […] in physiological saline was injected intravenously. Thirty minutes after the injection of the antigen, the animals were sacrificed and the skin was removed. Each test compound was given orally 2 hours and intravenously 5 minutes before administration of the antigen. Each sensitized area of the skin was treated substantially in the same manner as that of the above mentioned test (2) to calculate ED50 value.

[3] = system: passive cutaneous anaphylaxis (P.C.A.) reaction; test: Antagonism to passive cutaneous anaphylaxis (P.C.A.) in rat; assay type: in vivo, rat (male Sprague-Dawley-JCL); conditions: for ED50: Rattus norvegicus
Description: (1) Preparation of antiserum
(a) Rat reaginic antiserum against egg albumin
One mg of egg albumin emulsified in 0.5 ml of B. pertussisdiphtheria mixed vaccine (Tanabe Seiyaku Company Ltd.) and 0.5 ml of Freund's incomplete adjuvant (Difco) was used as the antigen. The emulsion was given subcutaneously in a single dose of 1 ml divided equally (0.25 ml) to the four foot pads of male Sprague-Dawley JCL strain rats aged 6 weeks, each weighing 170-220 g. Blood samples were collected from the femoral artery 12 days after injection, and centifuged at 3000 r.p.m. at 4° C. for 15 minutes. The antisera thus obtained were stored at -20° C.
(2) antagonism to passive cutaneous anaphylaxis (P.C.A.) in rat
Ten male Sprague-Dawley-JCL strain rats, weighing 290-310 g, were used for each dose. The rat reaginic antiserum against egg albumin was used at a dilution 1:4. The animals were sensitized with 0.1 ml of the antiserum injected intracutaneously on the depilated backs of the rats. Fortyeight hours after the injection of the antiserum, 1 ml of mixture of egg albumin 5 mg and Evans' blue 5 mg in physiological saline 1 ml was injected intravenously. Thirty minutes after the injection of the antigen, animals were sacrificed and the skin was removed. To each sensitized area of the skin was added 10 ml of a 4:1 mixture of acetone and 2% solution of RBS-25 (Marumoto Industrial Co., Ltd.) to extract the dye and the mixture was allowed to stand for 16 hours, during of which the mixture was twice shaken for 30 minutes at 5th hour and 16th hour. It was further centrifuged at 2,000 r.p.m. for 15 minutes and the quantity of the dye in the supernatant solution was determined by colorimetry at […]. Each test compound was given orally 2 hours and intravenously 5 minutes before administration of the antigen. The inhibitory effect of each test compound was determined from the dye amounts measured in comparison with the control group and the treated group and the ED50 value was calculated according to Litchfield-Wilcoxon method.

[4] = iv, 5 min, i.v., 5 minutes before antigen
[5] = i.v., 4 mg/kg, 5 minutes before antigen
[6] = i.v., 16 mg/kg, 5 minutes before antigen
[7] = i.v., 64 mg/kg, 5 minutes before antigen
[8] = p.o., 32 mg/kg, 2 hours before antigen
[9] = p.o., 125 mg/kg, 2 hours before antigen
[10] = p.o., 500 mg/kg, 2 hours before antigen
[11] = iv, 5 min, i.v., 5 minutes before antigen, Litchfield-Wilcoxon

Structure (SMILES) | LD50 at 168 h (Acute toxicity in mouse; po, female) | LD50 at 168 h (Acute toxicity in mouse; po, male) | Inhibitory effect of anaphylactic asthma in guinea-pig (anaphylactic asthma; 4 mg/kg i.v.) | Inhibitory effect of anaphylactic asthma in guinea-pig (anaphylactic asthma; 16 mg/kg i.v.) | Inhibitory effect of anaphylactic asthma in guinea-pig (anaphylactic asthma; 64 mg/kg i.v.) | Inhibitory effect of Bradykinin-induced bronchoconstruction in guinea-pig ([1]; 0.064 mg/kg i.v.) | Inhibitory effect of Bradykinin-induced bronchoconstruction in guinea-pig ([1]; 0.25 mg/kg i.v.) | Inhibitory effect of Bradykinin-induced bronchoconstruction in guinea-pig ([1]; 1 mg/kg i.v.) | Inhibitory effect of Bradykinin-induced bronchoconstruction in guinea-pig ([1]; 4 mg/kg i.v.) | ED50 [1] | LD50 at 168 h (Acute toxicity in rat; po, female) | LD50 at 168 h (Acute toxicity in rat; po, male) | ED50 [2, 4] | ED50 ([2]; po, 2 hours before antigen) | Inhibitory effect of P.C.A. reaction in guinea-pig [2, 5] | Inhibitory effect of P.C.A. reaction in guinea-pig [2, 6] | Inhibitory effect of P.C.A. reaction in guinea-pig [2, 7] | Inhibitory effect of P.C.A. reaction in guinea-pig [2, 8] | Inhibitory effect of P.C.A. reaction in guinea-pig [2, 9] | Inhibitory effect of P.C.A. reaction in guinea-pig [2, 10] | further results
O=C(Cn1c(=O)sc2ccc(Cl)cc21)N1CCC(O)CC1 [Compound A, 3-(4-hydroxypiperidino)carbonylmethyl-5-chloro-2-benzothiazolinone] | > 8000 mg/kg | > 8000 mg/kg | 0% | 90% | 100% | 12% | 50% | 89% | 91% | 0.278 mg/kg | > 8000 mg/kg | > 8000 mg/kg | 29.1 mg/kg | 202 mg/kg | 15.5% | 32.9% | 68.9% | 33.5% | 31.7% | 67.4% | LD50 at 168 h (Acute toxicity in mouse; ip, female): > 8000 mg/kg; LD50 at 168 h (Acute toxicity in mouse; ip, male): > 8000 mg/kg; LD50 at 168 h (Acute toxicity in mouse; sc, female): > 8000 mg/kg; LD50 at 168 h (Acute toxicity in mouse; sc, male): > 8000 mg/kg; ED50 (anaphylactic asthma; Cavia porcellus, iv, 2 h, i.v., anaphylactic asthma, Litchfield-Wilcoxon, read-out: ED50 (dose required for 50% protection from death)): ~8.5 mg/kg; LD50 at 168 h (Acute toxicity in rat; ip, female): 5800 mg/kg; LD50 at 168 h (Acute toxicity in rat; ip, male): 7110 mg/kg; LD50 at 168 h (Acute toxicity in rat; sc, female): > 8000 mg/kg; LD50 at 168 h (Acute toxicity in rat; sc, male): > 8000 mg/kg; ED50 [3, 11]: 56.6 mg/kg; ED50 ([3]; po, 2 hours before antigen, Litchfield-Wilcoxon): 348 mg/kg; Inhibitory effect of P.C.A. reaction in rat [3, 5]: 22.6%; Inhibitory effect of P.C.A. reaction in rat [3, 6]: 41.5%; Inhibitory effect of P.C.A. reaction in rat [3, 7]: 49.1%; Inhibitory effect of P.C.A. reaction in rat [3, 8]: 20.8%; Inhibitory effect of P.C.A. reaction in rat [3, 9]: 20.8%; Inhibitory effect of P.C.A. reaction in rat [3, 10]: 62.3%
O=C(O)c1cc(=O)c2c(OCC(O)COc3cccc4oc(C(=O)O)cc(=O)c34)cccc2o1 [Compound C, disodium chromoglycate] | > 11000 mg/kg | > 11000 mg/kg | 0% | 0% | 10% |  |  | 12% | 28% | > 16 mg/kg | > 11000 mg/kg | > 11000 mg/kg |  |  | 11.4% | 18.4% | -2.2% | -25.4% | 24.6% |  | ED50 (dose required for 50% protection from death) (anaphylactic asthma; i.v., anaphylactic asthma, Litchfield-Wilcoxon): No effect; Inhibitory effect of Bradykinin-induced bronchoconstruction in guinea-pig ([1]; 16 mg/kg i.v.): 24%; ED50 [3, 11]: 73.2 mg/kg; Inhibitory effect of P.C.A. reaction in rat [3, 5]: 24.1%; Inhibitory effect of P.C.A. reaction in rat [3, 6]: 55.6%; Inhibitory effect of P.C.A. reaction in rat [3, 7]: 41.4%; Inhibitory effect of P.C.A. reaction in rat [3, 8]: -16.1%; Inhibitory effect of P.C.A. reaction in rat [3, 10]: 9.4%; ED50 (P.C.A. reaction in rat) ([3]; p.o., 2 hours before antigen, Litchfield-Wilcoxon): No effect
O=C(Cn1c(=O)sc2ccc(Cl)cc21)N1CCN(CCO)CC1 [Compound D, 3-[4-(2-hydroxyethyl)-1-piperazinylcarbonylmethyl]-5-chloro-2-benzothiazolinone hydrochloride] | 622 mg/kg | 564 mg/kg |  |  |  | -14% | 27% | 44% | 94% | 0.813 mg/kg | 3800 mg/kg |  | 46.8 mg/kg | 594 mg/kg | 7.4% | 19.4% | 60.6% | -8.2% | 6.1% | 43.4% | Inhibitory effect of Bradykinin-induced bronchoconstruction in guinea-pig ([1]; 16 mg/kg i.v.): 99%
